Assay results taken from ChEMBL document CHEMBL1221200, “Diarylquinolines target subunit c of mycobacterial ATP synthase” (Nat Chem Biol, 2007).
Converted amounts (≈) assume the structure as drawn. The source made the active and inactive calls. No cut-off for these calls is given here.

Experiments:
[1] = system: Mycobacterium tuberculosis; assay: Antimicrobial activity against wild-type Mycobacterium tuberculosis isolate LV13 expressing ATP synthase AtpE I66M mutant protein assessed as growth inhibition in early log-phase by 7H10 agar dilution method; type: functional, organism-based
[2] = system: ATP synthase (Mycobacterium tuberculosis), P9WPU9+P9WPU5+P9WPU7+P9WPV5+P9WPS1+P9WPV1+P9WPV7+P9WPV3 [I66M]; assay: Inhibition of Mycobacterium tuberculosis isolate LV13 ATP synthase subunit c I66M mutant-mediated ATP synthesis after 24 hrs by luminometry
[3] = system: Mycobacterium tuberculosis; assay: Antimicrobial activity against wild-type Mycobacterium tuberculosis isolate BK12 expressing ATP synthase AtpE A63P mutant protein assessed as growth inhibition in early log-phase by 7H10 agar dilution method; type: functional, organism-based
[4] = system: ATP synthase (Mycobacterium tuberculosis), P9WPU9+P9WPU5+P9WPU7+P9WPV5+P9WPS1+P9WPV1+P9WPV7+P9WPV3 [A63P]; assay: Inhibition of Mycobacterium tuberculosis isolate BK12 ATP synthase subunit c A63P mutant-mediated ATP synthesis after 24 hrs by luminometry
[5] = system: Mycobacterium tuberculosis; assay: Ratio of MIC for Mycobacterium tuberculosis H37Rv isolate LV13 expressing ATP synthase atpE I66M mutant protein to MIC for Mycobacterium tuberculosis H37Rv; type: functional
[6] = system: Mycobacterium tuberculosis; assay: Antimicrobial activity against Mycobacterium tuberculosis H37Rv isolate BK12 expressing ATP synthase atpE A63P mutant protein by 7H10 broth dilution method; type: functional
[7] = system: Mycobacterium tuberculosis; assay: Ratio of MIC for Mycobacterium tuberculosis H37Rv isolate BK12 expressing ATP synthase atpE A63P mutant protein to MIC for Mycobacterium tuberculosis H37Rv; type: functional
[8] = system: Mycobacterium tuberculosis; assay: Antimicrobial activity against Mycobacterium tuberculosis H37Rv isolate LV13 expressing ATP synthase atpE I66M mutant protein by 7H9 broth dilution method; type: functional
[9] = system: Mycobacterium tuberculosis; assay: Antimicrobial activity against Mycobacterium tuberculosis H37Rv isolate BK12 expressing ATP synthase atpE A63P mutant protein by 7H9 broth dilution method; type: functional
[10] = system: Mycobacterium tuberculosis; assay: Antimicrobial activity against Mycobacterium tuberculosis H37Rv isolate LV13 expressing ATP synthase atpE I66M mutant protein by 7H10 broth dilution method; type: functional

| SMILES | Activity [1] | inhibition [2] | Activity [3] | inhibition [4] | Ratio [5] | MIC [6] [µg/mL] | Ratio [7] | MIC [8] [µg/mL] | MIC [9] [µg/mL] | MIC [10] [µg/mL] |
| --- | --- | --- | --- | --- | --- | --- | --- | --- | --- | --- |
| COc1nc2ccc(Br)cc2cc1[C@@H](c1ccccc1)[C@@](O)(CCN(C)C)c1cccc2ccccc12 | Active | inactive | Active | inactive |  |  |  |  |  |  |
| COc1nc2ccc(Br)cc2cc1[C@@H](c1ccccc1)[C@@](O)(CCN(C)C)c1cccc2ccccc12 [BEDAQUILINE] |  |  |  |  | >200 | 13 (≈ 23.4 µM) | >200 | 11 (≈ 19.8 µM) | 11 (≈ 19.8 µM) | 13 (≈ 23.4 µM) |
